Counter-ions that a name gives are not always drawn.
Tested on: patients with a history of atrial fibrillation or atrial flutter
Assay: prospective, multinational, double-blind, randomized, multi-center, placebo-controlled, parallel group trial for the prevention of cardioversion
Assay type: in vivo, human
Description: Efficacy of dronedarone and its pharmaceutically acceptable salts versus placebo for the prevention of cardioversion was provided via dronedarone hydrochloride during a prospective, multinational, double-blind, randomized, multi-center, placebo-controlled, parallel group trial.
Patients must have a history of atrial fibrillation or atrial flutter and/or may be in normal sinus rhythm or in atrial fibrillation or flutter at the time of recruitment.
Recruitment of patients was conducted taking into account the following inclusion criteria:
• 1) One of the following risk factors had to be present: • age equal to or greater than 70 years, • hypertension (taking antihypertensives of at least two different classes), • diabetes, • history of cerebral stroke (transient ischemic event or completed cerebral stroke) or of systemic embolism, • left atrial diameter greater than or equal to 50 mm measured by echocardiography, • left ventricular ejection fraction less than 40%, measured by two-dimensional echography; • or • age equal to or above 70, or even above 75, possibly combined with at least one of the risk factors below: • hypertension (taking antihypertensives of at least two different classes), • diabetes, • history of cerebral stroke (transient ischemic event or completed cerebral stroke) or of systemic embolism, • left atrial diameter greater than or equal to 50 mm measured by echocardiography, • left ventricular ejection fraction less than 40%, measured by two-dimensional echography; • 2) availability of one electrocardiogram within the last six months, showing that the patients was or is in atrial fibrillation/flutter, • 3) availability of one electrocardiogram within the last six months, showing that the patients was or is in sinus rhythm.
Study drug treatment units (placebo or dronedarone hydrochloride corresponding to 400 mg of base) were such that each patient took one tablet in the morning during or shortly after breakfast and one tablet in the evening during or shortly after dinner.
The treatment duration depended on the time of recruitment of each patient in the trial and could be comprised from 12 months to 30 months.
Results were calculated using non-parametric Kaplan-Meier estimate.
Cox's proportional hazard model was used to estimate the hazard ratio also called relative risk.
Relative risk (RR) is the ratio between the risk of having a cardioversion for patients treated with dronedarone and the risk of having a cardioversion for patients treated with placebo.
Percentage of decrease of an event is calculated as follow: […]

CCCCc1oc2ccc(NS(C)(=O)=O)cc2c1C(=O)c1ccc(OCCCN(CCCC)CCCC)cc1 [dronedarone hydrochloride, 2-n-butyl-3-[4-(3-di-n-butylaminopropoxy)benzoyl]-5-methylsulfonamido-benzofuran]
events (cardioversion) registered (2301 of 4628 patients treated, 400 mg of base twice a day with meals, 12 to 30 months, placebo group 481 events): 339 | Calculated relative risk (hazard ratio) of having a cardioversion versus placebo (Cox's proportional hazard model, 400 mg of base twice a day, 12 to 30 months, p<0.001): 0.68 | time course of effect, Kaplan Meier cumulative incidence from randomization to first cardioversion (FIG. 1) (on-study period 12-30 months): occurred early and increased over time | decrease of electrical cardioversion (x=1-RR versus placebo, p<0.001): 32%

— patent US20110166221A1, “USE OF DRONEDARONE FOR THE PREPARATION OF A MEDICAMENT FOR USE IN THE PREVENTION OF CARDIOVERSION” (SANOFI-AVENTIS, priority 2008, published 2011)
